The record followed here is patent US10154970B2, “Methods for immunomodulation of cancer and infectious disease therapy” (The Regents of the University of California, priority 2014, dated 2018).

Structures are written as SMILES. Like-named read-outs stand apart in the source and are kept apart here.

Assay [1] concerns IFN-γ. The following applies: for antigen-specific immune response to the PV: short-course treatment. The method, then: FIG. 5. Effect of TRIP on the immune response to an antigen-specific peptide vaccine (PV). Mice received 8 weekly 10-μg doses of PV and daily oral TRIP treatment for the final 16 days of the study. Lymphocytes were isolated 48 hours after the final dose of PV for the enzyme-linked immunosorbent spot (ELISpot) assay. Data are expressed as the number of spot forming cells (SFC)/500,000 lymphocytes following exposure to medium (no peptide), scrambled peptide, and BP25 peptide.
A total of 43 wild type C57BL/6 mice were assigned to four different treatment groups: Control (n=10); and TRIP (i.e., ospemifene) 10, 50, and 100 mg/kg (n=11, all TRIP groups). All mice received a full course of tecemotide (L-BLP25) peptide vaccine (PV) immunotherapy (eight weekly 10 μg doses administered subcutaneously (s.c.) as described in Wurz G T. et al., J. Transl. Med., 11:64 (2013)). During the final 16 days of immunotherapy, mice received daily oral doses of TRIP according to treatment group assignment. TRIP oral dosing solutions were prepared by dissolving an appropriate amount of the drug in pure dimethyl sulfoxide (DMSO) and then adding peanut oil to the desired final concentration (final DMSO concentration was 2%). All doses were administered in a volume of 100 μl using 20-gauge stainless steel oral feeding needles. Control mice were given diluent only. Forty-eight hours following the final dose of PV, all mice were euthanized for the collection of blood for cytokine analysis by multiplex and spleens for assessing immune response by enzyme-linked immunosorbent spot (ELISpot) assay.
Data are expressed as the number of spot forming cells (SFC)/500,000 lymphocytes following exposure to medium (no peptide), scrambled peptide, and BP25 peptide.

For a further assay, the system named is IL-2. Briefly: IL-2 mRNA expression in Jurkat cells by qRT-PCR, normalized with GAPDH. The class given is cell-based, human. The method, then:
FIG. 1. Interferon gamma (IFN-γ) and interleukin (IL)-2 expression in human Jurkat cells following exposure to TRIP in vitro. Jurkat cells (2×10^6) were treated with different concentrations of TRIP as indicated for 24 hours. (A) IFN-γ and (B) IL-2 mRNA expression levels were detected by quantitative real-time polymerase chain reaction (qRT-PCR) and normalized with the expression of GAPDH. *p<0.05, **p<0.01, ***p<0.001.
FIG. 3. Effects of TRIP alone and in combination with trifluoperazine (TFP) or LY294002 (LY) on IFN-γ and IL-2 in human Jurkat cells in vitro. Jurkat cells (2×10^6) were pretreated with different concentrations of (A, B) TFP (0, 0.1, 1.0, 5.0, and 10.0 μM) and (C, D) LY294002 (0, 1, 5, 10, and 25 μM) for 1 hour, then incubated with medium containing 2.5 μM of TRIP for 24 hours. (A, C) IFN-γ and (B, D) IL-2 mRNA expression levels were detected by qRT-PCR and normalized with the expression of GAPDH. *p<0.05, **p<0.01, ***p<0.001.
FIG. 4. Effects of calmodulin, PI3K and MAPK inhibition on TRIP-induced expression of IFN-γ and IL-2 in human Jurkat cells in vitro. Jurkat cells (2×10^6) were pretreated with PD98059 (50 μM), TFP (10 μM) and LY294002 (25 μM) for 1 hour, then incubated with medium containing 2.5 μM of TRIP for 24 hours. (A) IFN-γ and (B) IL-2 mRNA expression levels were detected by qRT-PCR and normalized with the expression of GAPDH. **p<0.01, ***p<0.001, ****p<0.0001.
The potential immune regulating effects of TRIP and the possible mechanism(s) involved were determined with in vitro experiments examining the expression of T cell activating cytokines in human acute T cell leukemia Jurkat cells. The expression of IFN-γ and IL-2 RNA following exposure to increasing concentrations of TRIP (i.e., ospemifene) were first examined, followed by the effects of combining tamoxifen with TRIP on the expression of these cytokines. Different inhibitors of key T cell activation pathways—trifluoperazine (TFP), an inhibitor of calmodulin, LY294002, an inhibitor of PI3K, and PD98059, a MAPK inhibitor—in combination with TRIP were assessed for their effects on TRIP-induced expression of IFN-γ and IL-2 in Jurkat cells.
Jurkat cells (2.0×10^6) were treated with different concentrations of TRIP as indicated on the x-axis for 24 hours. (A) IFN-γ and (B) IL-2 mRNA expression levels were detected by quantitative real-time polymerase chain reaction (qRT-PCR) and normalized with the expression of GAPDH. *p<0.05, **p<0.01, ***p<0.001.
T cell activation requires multiple signals including PI3K, MAPK and calcium signaling pathways, and in order to identify the potential mechanism through which TRIP affects immune activation, Jurkat cells (2.0×10^6) were pretreated with different concentrations of TFP (0, 0.1, 1.0, 5.0 and 10.0 μM) (A, B) or LY294002 (0, 1, 5, 10 and 25 μM) (C, D) for one hour, then incubated with medium containing 2.5 μM TRIP for 24 hours. IFN-γ and IL-2 expression levels were detected by qRT-PCR and normalized with the expression of GAPDH. *p<0.05, **p<0.01, ***p<0.001.
Jurkat cells (2×10^6) were pretreated with PD98059 (50 μM), TFP (10 μM) or LY294002 (25 μM) for one hour, then incubated with medium containing 2.5 μM TRIP for 24 hours. (A) IFN-γ and (B) IL-2 mRNA expression levels were detected by qRT-PCR and normalized with expression of GAPDH. **p<0.01, ***p<0.001, ****p<0.0001.
The effects on T cell activation of different functional group substitutions on the TRIP chemical structure (Formula Ia) were examined by measuring the expression of IFN-γ and IL-2 RNA in human acute T cell leukemia Jurkat cells in vitro.
A strong increase is defined as a ≥50% increase compared to the control. A moderate increase is defined as a 25-49% increase compared to the control. A weak increase is defined as a 0-24% increase compared to the control. No effect is when there was no increase compared to the control.
For orientation: In qPCR the cycle at which signal appears reflects the starting amount.

Assay [2] concerns IFN-γ. The following applies: at 20 weeks (30 days), 5-mg/kg TRIP dose level.
Experimental: Average serum IFN-γ concentrations following daily oral TRIP treatment for 30 (Week 20), 60 (Week 24), and 90 (Week 28) days at the indicated doses (mg/kg). Serum was analyzed by multiplex immunoassay 24 hours after the final TRIP dose at each time point.
Following induction of lung cancer as described (Wurz G T. et al., J. Transl. Med., 11:64 (2013)), mice were randomized into four treatment groups: Control; and TRIP (i.e., ospemifene) 5, 25, and 50 mg/kg (n=12, all groups). TRIP and control solutions were orally administered by gavage according to treatment group. After 30 days of treatment (Week 20), a total of 16 mice, four from each treatment group, were euthanized, and whole blood was collected by cardiac puncture. The remaining mice continued daily TRIP treatments. An additional 16 mice, four from each treatment group, were euthanized following 60 (Week 24) and 90 (Week 28) days of treatment, and whole blood and livers were collected. Serum samples were subjected to multiplex cytokine analysis for TH1 (IL-2, IL-12, IFN-γ, TNF-α), TH2 (IL-4, IL-5, IL-10, IL-13) and inflammatory cytokines (MIP-1α, IP-10, MIG, IL-1β, IL-6, KC).

For the molecule `OCCOc1ccc(/C(=C(/CCCl)c2ccccc2)c2ccccc2)cc1` [TRIP, Z-2-[4-(4-chloro-1,2-diphenyl-but-1-enyl)-phenoxy]ethanol], the “IFN-γ immune response by ELISpot, TRIP combined with PV vs PV alone” value with IFN-γ [1] (TRIP 10, 50, 100 mg/kg daily oral final 16 days + 8 weekly 10 μg PV s.c.) is “significantly increase”. In addition, the “antigen-specific immune response to the PV” value in the assay with IFN-γ [1] (high (100 mg/kg) dose of TRIP) and in the assay with IFN-γ [1] (low (10 mg/kg) dose of TRIP) was “significantly increased” throughout. Also, the “IL-2 RNA expression compared to control” value in the assay on IL-2 (Jurkat cells, different concentrations of TRIP, 24 hours, dose-dependent (FIG. 1B)) is “significantly induced”. In the assay on IL-2 (mRNA in Jurkat cells in vitro, relative to control sample without TRIP compound), the “IL-2 Expression” value was “+++ (strong increase)”. Further, in the assay with IFN-γ [2], the “serum IFN-γ” value was “elevated”.
